Reference: patent US20080286339A1, “METHODS AND DEVICES FOR THE SUSTAINED RELEASE OF MULTIPLE DRUGS” (priority 2003, published 2008)
Like-named read-outs stand apart in the source and are kept apart here.

Legend:
[1] = endogenous, normal menstrual cycle, cited from earlier work; for Tmax: phase of cycle
[2] = estradiol administered at 100 μg/day; cited from earlier work
[3] = Expected characteristics of Ring A / Ring B formulations (Table II); assay type: in vivo; settings: 21 days of release
Description: In an alternate embodiment of this aspect of the invention, the two formulations described above (the LHRH/estrogenic steroid formulation and LHRH/estrogenic/progestational steroid formulation) are combined in one drug delivery device, which is designed to remain in the vagina of the female for the entire menstrual cycle. In this embodiment, the drug delivery device comprises at least one cylindrical unitary segment per hormonal formulation, or, alternatively, at least one cylindrical unitary segment per active ingredient (i.e., LHRH, sex steroid, or sex steroid modulator). The choice of polymeric material and the ratio of polymeric material to LHRH/sex steroid/sex steroid modulator are preselected for each segment to provide the appropriate release kinetics for the individual steroids and/or steroidal formulations. By selecting the polymeric material based on its release properties and adjusting the ratio of polymeric material to drug, the method of the present invention provides the pre-set timed delivery of LHRH, estrogenic steroid, and progestational steroid at the appropriate phase of the menstrual cycle to achieve the desired contraceptive effect. For example, this “combined” device would release LHRH and/or its agonists or antagonists continuously for 30 days in combination with an estrogenic compound.

[4] = assay type: in vivo; settings: for Duration of release from the ring: delayed release ring
Protocol: The rate of hydration of the intravaginal device depends on many factors, including the rate of water penetration into the polymer. The rate of water penetration can be modulated by the osmotic pressure within the polymer. The osmotic pressure can be modulated by adding salt (NaCl, KCl, etc) to the formulation of the drug.
Estradiol and GnRH can be formulated as described herein. Yet, additional salt is added (300 mmol).

[5] = tested on: endogenous luteinizing hormone (LH); assay: Intravaginal administration of GnRH/hydrogel to Rhesus monkeys, serum endogenous LH (Example 7); assay type: in vivo; settings: 10 mg GnRH in 2 g hydrogel, 48 hours
[6] = assay type: physicochemical; settings: for In vitro release kinetics: EVA ring, 70:30 PBS:EtOH pH 6, 37° C., 14 to 21 day period
Protocol: At the indicated time points media was collected and measured by HPLC on an Agilent 1100 Series HPLC (Agilent, Forest City, Calif.). […] Results were calculated based on the area under the curve compared to a 5 point calibration curve. Results were expressed as the cumulative release in μg released over the course of the experiment.

[7] = Effect of cellulosics (Methocel) on in vitro release from EVA (Example 5); assay type: physicochemical; settings: EVA with 5% or 25% Methocel, PBS pH 6.10:ethanol 70:30, 37° C.
Description: Also, varying amounts of a commercially available cellulosic, Methocel® (Dow Chemicals, Co., Midland, Mich.) were incorporated into the mixtures to evaluate the effect of cellulosics on release kinetics. […] The solutions were slowly emulsified into a methylene chloride solution containing EVA. The resulting emulsions were solvent-casted into a mold, which was then cooled on dry ice. Following sublimation, the […] were cut into 1 cm×1 cm samples, and placed in scintillation vials, to which 0.1 M phosphate buffered saline (pH 6.10) and ethanol were added in a 70:30 ratio. The vials were placed in a 37° C. incubator on a shaker rotating at 100 RPM. The buffer solution was replaced at predetermined time points. […] Next, the release kinetics were determined by plotting the cumulative release amounts as a function of time.

[8] = In vitro release from double-sided EVA disc (Example 6); assay type: physicochemical; settings: 70:30 PBS:EtOH pH 6, 37° C.
Protocol: Also, the EVA/drug mixtures were combined to form a double-sided disc, comprising estradiol on one side and progesterone on the other. After drying, the discs were evaluated for their release kinetics. […] At the indicated time points, 100% of the media was collected for measurement and 100 ml of release media was replaced. The media was measured by an Agilent 1100 Series HPLC (Agilent). […] Results were calculated based on the area under the curve compared to a 5 point calibration curve and depicted in FIG. 7 as the cumulative percent released.

| Compound | Cmax [1] [ng/mL] | Steady State Serum Concentration [1] [pg/mL] | Tmax [1] | Serum level produced [2] | Drug Circulation Level ([3]; Ring A) [pg/mL] | Drug Circulation Level ([3]; Ring B) [pg/mL] | Duration of release from the ring [4] [days] | Effect on endogenous LH levels [5] | Serum level in the circulation that the delivery rates are capable of producing [6] [ng/mL] | In vitro release kinetics [6] | Time for which the ring sustains adequate flux rates ([6]; not told) | In vitro release kinetics with addition of Methocel [7] | Time after which release begins ([4]; segment without salt) [days] | T1/2 [1] [h] | In vitro release kinetics [8] |
| --- | --- | --- | --- | --- | --- | --- | --- | --- | --- | --- | --- | --- | --- | --- | --- |
| C[C@]12CC[C@@H]3c4ccc(O)cc4CC[C@H]3[C@@H]1CC[C@@H]2O [Estradiol, estradiol] | 0.5 | 50 to 500 | Midcycle | approximately 100 pg/ml | 100 | 100 |  |  |  |  |  |  |  |  |  |
| CCNC(=O)[C@@H]1CCCN1C(=O)[C@H](CCCNC(=N)N)NC(=O)[C@H](CC(C)C)NC(=O)[C@@H](Cc1c[nH]c2ccccc12)NC(=O)[C@H](Cc1ccc(O)cc1)NC(=O)[C@H](CO)NC(=O)[C@H](Cc1c[nH]c2ccccc12)NC(=O)[C@H](Cc1c[nH]cn1)NC(=O)[C@@H]1CCC(=O)N1 [D-Trp6-Pro9-Net-GnRH] |  |  |  |  |  |  | 28 |  |  |  |  |  |  |  |  |
| p-Glu-His-Trp-Ser-Tyr-Gly-Leu-Arg-Pro-Gly-NH2 [GnRH] |  |  |  |  |  |  |  | produces elevated levels of endogenous LH | 3 to 6 | stable zero order release kinetics | at least 21 days |  |  |  |  |
| CC(=O)[C@H]1CC[C@H]2[C@@H]3CCC4=CC(=O)CC[C@]4(C)[C@H]3CC[C@]12C [Progesterone, progesterone] | 35 | 2000 to 6000 | Midluteal |  |  | 6000 | 4 |  |  | stable zero order release kinetics |  | pseudo zero order release kinetics | 14 | 12 | independent bi-phasic release kinetics |
